Reference: ChEMBL document CHEMBL1201862, “PubChem BioAssay data set” (2004)
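Protocol summary: plate cells (96-well), add compound at 5 concentrations, incubate 48 h, interpolate endpoints linearly. Here, GI50 denotes the concentration required for 50% inhibition of growth.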 The source made the active and inactive calls. No stated cut-off is given here; in the data, active = GI50 up to about 1.1 µM and inactive = higher.

Assays:
Assay in all cases: NCI anticancer screen, dose series, 48 h
786-0 = test system: 786-0
A498 = test system: A498
A549 = test system: A549
ACHN = test system: ACHN
CAKI-1 = test system: CAKI-1
CCRF-CEM = test system: CCRF-CEM
COLO 205 = test system: COLO 205
DU-145 = test system: DU-145
EKVX = test system: EKVX
HCC 2998 = test system: HCC 2998
HCT-116 = test system: HCT-116
HL-60 = test system: HL-60
HOP-62 = test system: HOP-62
HOP-92 = test system: HOP-92
HT-29 = test system: HT-29
Hs-578T = test system: Hs-578T
IGROV-1 = test system: IGROV-1
K562 = test system: K562
KM12 = test system: KM12
LOX IMVI = test system: LOX IMVI
M14 = test system: M14
MCF7 = test system: MCF7
MDA-MB-231 = test system: MDA-MB-231
MDA-MB-435 = test system: MDA-MB-435
MDA-N = test system: MDA-N
MOLT-4 = test system: MOLT-4
Malme-3M = test system: Malme-3M
NCI-H226 = test system: NCI-H226
NCI-H23 = test system: NCI-H23
NCI-H460 = test system: NCI-H460
NCI-H522 = test system: NCI-H522
NCI/ADR-RES = test system: NCI/ADR-RES
OVCAR-3 = test system: OVCAR-3
OVCAR-4 = test system: OVCAR-4
OVCAR-5 = test system: OVCAR-5
OVCAR-8 = test system: OVCAR-8
PC-3 = test system: PC-3
RPMI-8226 = test system: RPMI-8226
RXF 393 = test system: RXF 393
SF-268 = test system: SF-268
SF-295 = test system: SF-295
SF-539 = test system: SF-539
SK-MEL-28 = test system: SK-MEL-28
SK-MEL-5 = test system: SK-MEL-5
SK-OV-3 = test system: SK-OV-3
SN12C = test system: SN12C
SNB-19 = test system: SNB-19
SNB-75 = test system: SNB-75
SR = test system: SR
SW-620 = test system: SW-620
T47D = test system: T47D
TK-10 = test system: TK-10
UACC-257 = test system: UACC-257
UACC-62 = test system: UACC-62
UO-31 = test system: UO-31

Measured: GI50

C/C(=C\CNc1nc(Cl)nc2[nH]cnc12)CO
inactive: 786-0 > 100 µM | A498 > 100 µM | A549 > 100 µM | ACHN > 100 µM | CAKI-1 > 100 µM | CCRF-CEM > 100 µM | COLO 205 > 100 µM | DU-145 > 100 µM | EKVX > 100 µM | HCC 2998 > 100 µM | HCT-116 > 100 µM | HL-60 > 100 µM | HOP-62 > 100 µM | HOP-92 > 100 µM | HT-29 > 100 µM | Hs-578T > 100 µM | IGROV-1 > 100 µM | K562 > 100 µM | KM12 > 100 µM | LOX IMVI > 100 µM | M14 > 100 µM | MCF7 > 100 µM | MDA-MB-231 > 100 µM | MDA-MB-435 > 100 µM | MDA-N > 100 µM | MOLT-4 > 100 µM | Malme-3M > 100 µM | NCI-H226 > 100 µM | NCI-H23 > 100 µM | NCI-H460 > 100 µM | NCI-H522 > 100 µM | NCI/ADR-RES > 100 µM | OVCAR-3 > 100 µM | OVCAR-4 > 100 µM | OVCAR-5 > 100 µM | OVCAR-8 > 100 µM | PC-3 > 100 µM | RPMI-8226 > 100 µM | RXF 393 > 100 µM | SF-268 > 100 µM | SF-295 > 100 µM | SF-539 > 100 µM | SK-MEL-28 > 100 µM | SK-MEL-5 > 100 µM | SK-OV-3 > 100 µM | SN12C > 100 µM | SNB-19 > 100 µM | SNB-75 96.4 µM | SR > 100 µM | SW-620 > 100 µM | T47D > 100 µM | TK-10 > 100 µM | UACC-257 > 100 µM | UACC-62 > 100 µM | UO-31 > 100 µM

CC(=O)OCCn1cnc2c(NCC=C(C)C)ncnc21
inactive: 786-0 > 100 µM | A498 > 100 µM | A549 > 100 µM | ACHN > 100 µM | CAKI-1 > 100 µM | CCRF-CEM > 100 µM | COLO 205 > 100 µM | DU-145 > 100 µM | EKVX > 100 µM | HCT-116 > 100 µM | HL-60 > 100 µM | HOP-62 > 100 µM | HOP-92 > 100 µM | HT-29 > 100 µM | Hs-578T > 100 µM | IGROV-1 > 100 µM | K562 > 100 µM | KM12 > 100 µM | LOX IMVI > 100 µM | M14 > 100 µM | MCF7 > 100 µM | MDA-MB-231 > 100 µM | MDA-MB-435 > 100 µM | MDA-N > 100 µM | MOLT-4 > 100 µM | Malme-3M > 100 µM | NCI-H226 > 100 µM | NCI-H23 > 100 µM | NCI-H460 > 100 µM | NCI-H522 > 100 µM | NCI/ADR-RES > 100 µM | OVCAR-3 > 100 µM | OVCAR-4 > 100 µM | OVCAR-5 > 100 µM | OVCAR-8 > 100 µM | PC-3 > 100 µM | RPMI-8226 > 100 µM | RXF 393 > 100 µM | SF-268 > 100 µM | SF-295 > 100 µM | SF-539 > 100 µM | SK-MEL-28 > 100 µM | SK-MEL-5 > 100 µM | SK-OV-3 > 100 µM | SN12C > 100 µM | SNB-19 > 100 µM | SNB-75 > 100 µM | SR > 100 µM | SW-620 > 100 µM | T47D > 100 µM | TK-10 > 100 µM | UACC-257 > 100 µM | UO-31 > 100 µM
